Where two headings read alike, the source gives them in different places.
Key:
[1] = tested on: FIPV strain 79-1146; assay: microbe, parasite or virus in culture; type: cell-based, feline infectious peritonitis virus; details: read-out: FIPV (CRFK) EC50
[2] = tested on: Crandell-Reese feline kidney (CRFK) cells
[3] = tested on: Vero cells
[4] = tested on: HIV-1 (IIIB); details: read-out: HIV-1 (CEM) EC50; cited from earlier work
[5] = tested on: CEM cells; details: cited from earlier work; for IC50: read-out: HIV-1 (CEM) IC50 (50% cytostatic concentration)
[6] = tested on: FIPV; type: cell-based, feline infectious peritonitis virus
[7] = mouse, in vivo, cited from earlier work

Compound | EC50 [1] | FIPV (CRFK) CC50 [2] | SARS-CoV (Vero) CC50 [3] | EC50 [4] | HIV-1 (CEM) IC50 (50% cytostatic concentration) [5] | IC50 [5] | delay of addition after FIPV infection that keeps full antiviral activity [6] | CC50 [2] | CC50 [3] | Vss ([7]; iv) | half-life ([7]; iv) | tissue penetration [7] | EC50 ([1]; Alphacoronavirus 1, CRFK, 96 h)
N-Deacyl-A40926 [compound 55] | > 80 µM | neither toxic | neither toxic | > 250 µM | neither toxic | > 500 µM |  |  |  |  |  |  | 
Ristosaminylaglycon of ristomycin [compound 51] | > 80 µM |  |  | > 50 µM |  | > 100 µM |  |  |  |  |  |  | 
Carboxyeremomycin [compound 14] | > 80 µM |  |  |  |  |  |  |  |  |  |  |  | 
Teicoplanin [compound 52] | > 80 µM | neither toxic | neither toxic |  | neither toxic | > 500 µM | markedly less delayed |  |  |  |  |  | 
Eremomycin aglycon [compound 71] | > 80 µM |  |  | 50 µM |  | > 500 µM |  | > 80 µM | > 80 µM |  |  |  | 
demannosyl-N-deacylA40926 [compound 57] | > 80 µM | neither toxic | neither toxic | 115 ± 21 µM | neither toxic | > 500 µM |  |  |  |  |  |  | 
Ristomycin [compound 50] | > 80 µM | neither toxic | neither toxic | > 250 µM | neither toxic | > 500 µM |  |  |  |  |  |  | 
Vancomycin aglycon hexapeptide [compound 69] | > 100 µM |  |  | ≥ 125 µM |  |  |  | > 100 µM | > 100 µM |  |  |  | 
Vancomycin aglycon [compound 65] | > 80 µM |  |  | 65 µM |  | > 500 µM |  | > 80 µM | > 80 µM |  |  |  | 
Eremomycin [compound 7] | > 100 µM | neither toxic | neither toxic | > 250 µM | neither toxic | > 500 µM |  |  |  |  |  |  | 
adamantyl-2 amide of eremomycin [AN0900] |  |  |  |  |  |  |  |  |  | 26.285 L/kg | 3.08 h | deep tissue penetration | 
Eremomycin aglycon hexapeptide [compound 84] | > 80 µM |  |  | 115 ± 21.2 µM |  | > 250 µM |  | > 80 µM | > 80 µM |  |  |  | 
De-Cl-eremomycin aglycon [compound 89] | > 100 µM |  |  | > 125 µM |  |  |  | > 100 µM | > 100 µM |  |  |  | 
CN[C@H](CC(C)C)C(=O)N[C@H]1C(=O)N[C@@H](CC(N)=O)C(=O)N[C@H]2C(=O)N[C@H]3C(=O)N[C@H](C(=O)N[C@H](C(=O)O)c4cc(O)cc(O)c4-c4cc3ccc4O)[C@H](O)c3ccc(c(Cl)c3)Oc3cc2cc(c3O[C@@H]2O[C@H](CO)[C@@H](O)[C@H](O)[C@H]2O[C@H]2C[C@](C)(N)[C@H](O)[C@H](C)O2)Oc2ccc(cc2Cl)[C@H]1O [compound 1, Vancomycin] | > 100 µM | neither toxic | neither toxic | > 250 µM | neither toxic | > 500 µM |  |  |  |  |  |  | > 80 µM

— paper PMC7114212 (Antiviral Research, 2006)
